Source: PubChem BioAssay AID2388 (Broad Institute, 2010)
The source made the active and inactive calls.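 How the source made its calls: active means fitted EC50 no more than ten times the top tested dose; inconclusive means flat fit with 30% to 70% inhibition, or a poor fit; inactive means EC50 beyond ten times the top tested dose.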

Test system: S. cerevisiae CDRE-lacZ reporter, CaCl2, luminescence
Experiment: blockers of CaCl2-induced CDRE-lacZ signaling – S. cerevisiae, luminescence, secondary, dose response (AID 2388)

EC50	Compound
> 18 µM (inactive)	CC1CCC(C(C)C)C(OC(=O)Cn2c(-c3ccc(Br)cc3)[n+](C)c3ccccc32)C1 (configuration not stated)
> 18 µM (inactive)	NC(=NCCCCCCN=C(N)/N=C(\N)Nc1ccc(Cl)cc1)/N=C(\N)Nc1ccc(Cl)cc1
